Data taken from a melting point compilation (Tetko et al.; mined from patent text by program, amines drawn as free bases though some values may be those of a salt).

Work on Cc1ccccc1C(=O)CN1C(=O)C(NC(=O)Nc2cccc(-c3nnn[nH]3)c2)N=C(C2CCCCC2)c2cccc(C)c21 (stereo unspecified) yielded a melting point of 165 to 177 °C.
CCOC(=O)/C=C/c1cn(-c2ccccc2)nc1OCc1ccccc1 gave a melting point of 105 to 106 °C.
Work on O=C(O)Cc1cc(C(=O)C=Cc2ccc(C(=O)O)cc2)ccc1O yielded a melting point greater than 260 °C.
For CSc1nn2c(N(C)C)cc(C)nc2c1S(=O)(=O)c1ccc(C)cc1, the melting point was greater than 230 °C.
Compound Cc1ccc(C(=O)O)c(NC(=O)CCCCNC(=O)OC(C)(C)C)c1 has a melting point of 212 °C.
Compound CCOC(=O)CCCCCN1C(=O)c2cccc3cc(N)cc(c23)C1=O has a melting point of 108 to 110 °C.
Compound COc1ccc(-c2ccc(OC)cc2[N+](=O)[O-])c([N+](=O)[O-])c1 has a melting point of 134 to 137 °C.
Work on NS(=O)(=O)c1cc(C(=O)NNc2ccccc2)ccc1Cl yielded a melting point of 189 to 190 °C.
Compound CC(C(=O)O)c1ccc(N)cc1 (stereo unspecified) has a melting point of 125 to 129 °C.
With COc1cc(COc2nn(-c3ccccc3)cc2C=O)ccc1OCc1nc(-c2ccccc2)cn1C the melting point was 126 to 127 °C.
In the case of COC(C)C(=O)Nc1c(C(=O)c2ccccc2)[nH]c2cc(Cl)ccc12 (stereo unspecified), the melting point is reported as 169 to 171 °C.
Work on CCOC(=O)C(C(=O)c1ccc(C#N)cc1)C1c2ccccc2Oc2ccccc21 (stereo unspecified) yielded a melting point of 141 °C.
In the case of Cc1onc(-c2c(F)cccc2Cl)c1C(=O)CBr, the melting point is reported as 74 to 75 °C.
Cc1ccc(-c2ccc3c(c2)C=C(C(=O)Nc2ccc(Cc4ncccc4O)cc2)CCO3)cc1 showed a melting point of 285 to 288 °C.
Work on O=S1(=O)NC(C2CCCCC2)Nc2c(Br)cc(Br)cc21 (stereo unspecified) yielded a melting point of 166 to 167 °C.
With CCOC(=O)CON(C(=S)Nc1cc(Cl)ccc1C)C(C)C the melting point was 83 to 85 °C.
CCc1ccc2c(C3=C(c4cn(C)c5ccccc45)C(=O)NC3=O)cn(C)c2c1 showed a melting point of 247 to 248 °C.
Compound CCC1(O)c2cc3n(c(=O)c2COC1O)Cc1cc2ccccc2nc1-3 (stereo unspecified) has a melting point of 280 °C.
In the case of CNC(=S)NS(=O)(=O)c1cc(CCNC(=O)c2cc(Cl)ccc2OC)ccc1-c1ccc(OC)cc1, the melting point is reported as 185 to 188 °C.
Compound CCCCOCCOc1ccc(-c2ccc3c(c2)C=C(C(=O)Nc2ccc(CSc4nnc(C)o4)cc2)CCN3CC(C)C)cc1 has a melting point of 107 to 109 °C.
With CC(C)Oc1cc([N+](=O)[O-])c(F)cc1C#N the melting point was 116 to 118 °C.
CCN(CC)Cc1cc(/C=C/C(=O)Nc2ccccc2C(=O)O)ccc1OC gave a melting point of 202 to 205 °C.
Compound CCN(c1ccc(C#N)cc1[N+](=O)[O-])S(=O)(=O)c1ccc(Cl)s1 has a melting point of 102 to 103 °C.
Compound COC(=O)CC(=O)c1cc(CN2CCOCC2)sc1Cl has a melting point of 67 to 68 °C.
Work on CN1CC=C(C2=Nc3cc(Cl)ccc3Oc3ccc(Cl)cc32)CC1 yielded a melting point of 166 to 167 °C.
Work on CC(C)(C)n1ncc(S)c(Cl)c1=O yielded a melting point of 112 to 113 °C.
With C#CCOc1ccc2c(c1)c(-c1ccc(C(C)C)cc1)nc(=O)n2Cc1cccc([N+](=O)[O-])c1 the melting point was 167 to 168 °C.
With COc1cc2c(cc1-c1c(C)nn(C)c1C)-c1c(-c3cccs3)c3c(n1CC2)C(=O)N(C(C)C)CCN(C(=O)C(C)C)C3 the melting point was 232 to 235 °C.
With CC(C)(C)OC(=O)N[C@@H]1C(=O)N(C(=O)C(=O)OC(C)(C)C)[C@@H]1CCC(=O)CO[Si](C)(C)C(C)(C)C the melting point was 102 to 103 °C.
With CC(C)CCN1C(=O)C(NC(=O)Nc2ccccc2)C(=O)N(CCN(C)C)c2ccccc21 (stereo unspecified) the melting point was 159 to 161 °C.
Compound Cc1ccccc1C(=O)n1ccc(-c2ccc(C(=O)N3Cc4cccn4Cc4ccccc43)cc2)n1 has a melting point of 170 to 173 °C.
In the case of O=C(O)c1cnc(Cn2cc(C3c4ccccc4C=Cc4ccccc43)c(=S)[nH]c2=O)s1, the melting point is reported as 198 to 200 °C.
In the case of N#CC1NC(CO)C(O)C(O)C1O (stereo unspecified), the melting point is reported as 143 °C.
COc1cc(C)cc2c1C(N1CC[N+]([O-])(C(=O)Cc3ccncc3)CC1)c1ncc(Br)cc1CC2 (single isomer, unassigned; (-)) showed a melting point of 111 to 116 °C.
With Cc1cc(C(C)(C)C)cc(C)c1SSc1c(C)cc(C(C)(C)C)cc1C the melting point was 127 to 128 °C.
In the case of N#Cc1c(N)c2ccccc2[nH]c1=O, the melting point is reported as greater than 250 °C.
CCc1c(OC)nc2nc(-c3noc(C(F)(F)F)n3)cn2c1C showed a melting point of 197 to 200 °C.
CCn1cc(/C=C/c2cn(-c3ccccc3)nc2OCc2ccc(OCc3nc(-c4ccc(CC(=O)O)cc4)oc3C)c(OC)c2)cn1 showed a melting point of 146 to 147 °C.
In the case of O=C(O)COc1ccc(-c2ccc(=O)[nH]n2)cc1Cl, the melting point is reported as 227 °C.
For COCCOC(=O)c1cc(NC(=O)OCc2ccccc2)ccc1OCCOC, the melting point was 104 to 105 °C.
O=C(OC(c1ccccc1)c1ccccc1)C(=C(CBr)N1CCOCC1)N1C(=O)C2N=C(Cc3ccccc3)SC21 (stereo unspecified) gave a melting point of 93 to 96 °C.
Compound CC(C)c1cc(C(=O)Nc2ccc3[nH]c(C(=O)O)cc3c2)oc1C(C)C has a melting point of 240 to 243 °C.
For C/C(=C\c1ccc(Cc2cccnc2)cc1)C(=O)O, the melting point was 164 to 166 °C.
For CS(=O)(=O)c1ccc(Cn2ccc(OCc3ccc(F)cc3F)c(Cl)c2=O)cc1, the melting point was 223 to 225 °C.
O=C(N[C@@H](CC1CCCCC1)C(=O)N[C@@H](Cc1ccccc1)C(=O)CSCc1ccco1)OCc1ccccc1 showed a melting point of 124 to 125 °C.
For O=C(O)C=C(c1cccc(Cl)c1)c1cccc(Cl)c1, the melting point was 114 to 115 °C.
CCOC(=O)c1c(NC2CCCCC2)c(C#N)c(=O)n2ccccc12 showed a melting point of 140 to 141 °C.
For CC(C)C[C@H](NC(=O)c1cccc2c1Nc1ccccc1S2)C(=O)N[C@H]1CCOC1O (stereo partly specified), the melting point was 99 to 101 °C.
CN(CCOc1ccc(CCO)cc1)c1nc2ccccc2o1 gave a melting point of 95 to 97 °C.
Work on CC(C)N(C[C@H](O)[C@H](Cc1ccccc1)NC(=O)OCc1ccccc1)NC(=O)C(C)(C)C yielded a melting point of 132 to 134 °C.
O=C(NC(=O)c1ccccc1Cl)Nc1ccc(C=C(Br)Br)cc1 showed a melting point of 190 °C.
Compound CCCCOc1c(CNC(=O)OC(C)(C)C)n(CC2CC2)c(=O)c2ccc(C(=O)OC)cc12 has a melting point of 139 to 140 °C.
With O=[N+]([O-])c1cc(Br)cc(O)c1O the melting point was 102 to 105 °C.
OC1(Cl)C=CC=CC1(O)Cl (stereo unspecified) showed a melting point of 113 to 114 °C.
COC(=O)c1cc(Cl)ccc1NS(=O)(=O)c1ccc(C)cc1 showed a melting point of 112 to 114 °C.
Compound CNc1ccc(C#Cc2cccc(-c3nc(NC)nc4cc(OC)c(OC)cc34)c2)cn1 has a melting point of 136 to 138 °C.
Work on CCc1ccccc1-c1nc2c3ccccc3ccn2c1N=Cc1ccc(C)cc1 yielded a melting point of 158 to 160 °C.
Work on CCCC(O)c1cc2c(=O)n(NS(C)(=O)=O)c(=O)[nH]c2cc1C(F)(F)F (stereo unspecified) yielded a melting point of 223 to 226 °C.
CCCC(=O)NC(=O)C(c1ccccc1)c1ccccc1 showed a melting point of 205 °C.
Work on CN1CC(CNC(=N)NC(=O)c2ccccc2)CC2c3cccc4[nH]cc(c34)CC21 (stereo unspecified) yielded a melting point of 190 to 191 °C.
With CCC1=C(c2cccc(F)c2)C(=O)N(c2ccc(Cl)c(C(F)(F)F)c2)C1 the melting point was 126 to 129 °C.
O=C(NN1CCN(C(=O)Nc2ccccc2)CC1)c1ccc(F)cc1 gave a melting point of 263 to 266 °C.
COc1ccccc1CNc1ccc2cc(Nc3nc(C(F)(F)F)co3)ccc2n1 gave a melting point of 144 °C.
CCCCCCCCCN(C)c1ccc(S(=O)(=O)Nc2ccccc2)cc1 showed a melting point of 113 to 116 °C.
For N#Cc1ccc(-c2cc(-c3ccc(O)c(F)c3)nc3ccc(O)cc23)cc1, the melting point was 266 to 267 °C.
With CO/C=C(/C(=O)OC)c1ccccc1Oc1cc(Cl)nc(Cl)n1 the melting point was 88 to 90 °C.
With Cn1cc(CO)c(=O)c2cccc(Cl)c21 the melting point was 182 to 184 °C.
Work on CCN1CNS(=O)(=O)c2cc(O)ccc21 yielded a melting point of 214 to 218 °C.
For CCC(CC)C(c1ccnn1-c1ccccc1)N(C)S(=O)(=O)c1cc(Cl)c(Cl)s1 (stereo unspecified), the melting point was 99 to 100 °C.
In the case of COc1ccc(-n2nc(Sc3ccc(-c4ccccc4)cc3)c(C)c(C#N)c2=O)cc1, the melting point is reported as 205 to 207 °C.
CCN(CC)CCN1C(=O)c2cc(OC)c3[nH]c4ccc(O)cc4c3c2C1=O gave a melting point of 226 to 228 °C.
Compound NC(=S)c1cc(Cl)c(Cl)c(Cl)n1 has a melting point of 168 to 169 °C.
Compound Cc1nc2c3c(c(C(=O)NCC(O)CO)cc2n1C)CCC(c1ccccc1)O3 (stereo unspecified) has a melting point of 268 to 270 °C.
Compound Oc1ccc2cc(-c3cnc(-c4ccccc4)o3)ccc2c1 has a melting point of 235 to 238 °C.
With Cc1cccc2c1-n1cnnc1SC2 the melting point was 234 °C.
Work on COc1cc2c(cc1OC)/C(=N/OCc1ccc3nonc3c1)CCC2 yielded a melting point of 139 to 140 °C.
Work on CN1CCN(c2cccc3ccc(C(=O)NCc4ccc(Cl)cc4)cc23)CC1 yielded a melting point of 72 to 74 °C.
CC(C)C(NC(=O)c1ccc(C(=O)NCC(=O)OCc2ccccc2)cc1)C(=O)N1CCCC1C(=O)NC(C(=O)C(F)(F)F)C(C)C (mixture of isomers) showed a melting point of 77 to 78 °C.
Work on Cc1c(NCCCN2CCN(c3ccccc3O)CC2)n(C)c(=O)n(C)c1=O yielded a melting point of 203 to 205 °C.
Work on CCCn1c(=O)c2ccc(NC(=O)CC3CCCC3)cc2n1Cc1ccc(C(=O)OC)cc1OC yielded a melting point of 74.5 to 77 °C.
In the case of COc1cc2ncc(C#N)c(Nc3cccc(C(C)=O)c3)c2cc1OC, the melting point is reported as 204 to 206 °C.
O=C(O)c1ccc(NC(O)C(=O)c2ccc(OCC3CCCCC3)cc2)cc1 (stereo unspecified) gave a melting point of 188 to 190 °C.
With CCCOC(=O)N(C)SN(C(=O)NC(=O)c1c(F)cccc1F)c1ccc(Oc2ccc(C(F)(F)F)cc2Cl)cc1F the melting point was 98 to 99 °C.
Cc1cccc(C)c1NC(=O)CCCc1cccnc1 showed a melting point of 98 to 99 °C.
OC1CCN(c2cc3nc(S)[nH]c3cc2F)CC1 gave a melting point of 268 to 269 °C.
CCOC(=O)N1CCc2c(sc3nc(-c4ccc(Cl)cc4)cn23)C1 gave a melting point of 156 to 159 °C.
Work on CC(C)(CNC(=O)CCCC(=O)O)SN=O yielded a melting point of 104 to 107 °C.
With CC(=O)Oc1ccccc1NC(=O)CBr the melting point was 79 to 82 °C.
For CCCOc1ccc(S(=O)(=O)N2CCN(CC)CC2)cc1C(=O)O, the melting point was 143 to 145 °C.
Cc1c(CC2=C(O)CCC2=O)ccc2ccccc12 showed a melting point of 226 to 228 °C.
CSc1nnc(-c2ccc(Cl)nc2)s1 showed a melting point of 136 °C.
For COc1ccc2c(-c3c(F)cccc3F)noc2c1Cl, the melting point was 175 to 179 °C.
Cc1c(CO)ncn1CCCNC(C)(C)c1ccc(Cl)cc1 gave a melting point of 97 to 99 °C.
In the case of Oc1cccc(OCCCC(O)(O)C(F)(F)F)c1, the melting point is reported as 76 to 77 °C.
For CC(=O)SCC(Cc1ccccc1)C(=O)Nc1cc(C)cc(C(=O)O)c1 (stereo unspecified), the melting point was 160 to 161 °C.
With CC(C)C[C@H](NS(=O)(=O)c1ccc(N(C)C)cc1)C(=O)N[C@H](C#N)CCc1ccccc1 the melting point was 46 to 48 °C.
